Results reported in patent US20240174634A1, “Aldehyde Dehydrogenase Inhibitors and Their Therapeutic Use” (priority 2020, published 2024).

target: T1, ALDH2 (Homo sapiens, UniProt P05091); experiment: Selectivity biochemical assay, NAD(P)H-Glo Detection System
T1 sequence (P05091 18-517): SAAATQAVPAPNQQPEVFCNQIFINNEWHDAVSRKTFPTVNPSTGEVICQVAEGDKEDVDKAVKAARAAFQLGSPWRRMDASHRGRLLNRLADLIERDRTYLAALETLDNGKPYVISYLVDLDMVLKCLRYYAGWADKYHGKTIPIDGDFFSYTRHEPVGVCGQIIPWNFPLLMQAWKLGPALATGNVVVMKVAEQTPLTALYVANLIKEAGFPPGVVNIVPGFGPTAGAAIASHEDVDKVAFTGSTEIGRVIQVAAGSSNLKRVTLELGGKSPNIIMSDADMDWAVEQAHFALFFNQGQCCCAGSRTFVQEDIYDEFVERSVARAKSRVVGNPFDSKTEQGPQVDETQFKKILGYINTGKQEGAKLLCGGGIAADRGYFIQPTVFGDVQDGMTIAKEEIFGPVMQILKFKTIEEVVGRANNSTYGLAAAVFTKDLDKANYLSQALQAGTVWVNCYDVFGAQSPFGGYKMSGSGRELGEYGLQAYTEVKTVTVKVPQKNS
Experimental: Materials: ALDH2 was purchased from Abnova. Tris(hydroxymethyl)aminomethane (Tris) was purchased from MP Biomedicals. TCEP, ethylenediaminetetraacetic acid (EDTA), propionaldehyde, DMSO and Tween-20 were purchased from Sigma. Nicotinamide adenine dinucleotide (NAD) was obtained from Abcam. The NAD(P)H-Glo™ Detection System was purchased from Promega. White, non-binding surface, 384 well plates were supplied by Corning (#3574).
Method: Inhibition of ALDH1A3 was assessed using the NAD(P)H-Glo™ Detection System (Cat. No. G9062) from Promega. This assay detects the production of NADH from NAD by ALDH1A3 via the coupled enzymatic conversion of a proluciferin reductase substrate to generate a luminescent signal. Inhibition of ALDH1A3 by small molecule inhibitors will result in reduction or abrogation of luminescence signal increase above background. Inhibition of ALDH1A1, ALDH1A2 and ALDH2 (selectivity assays) were assessed using the same assay.
Compounds were dosed into Corning 384 well assay plates using an Echo acoustic dispenser to give 10 point curves in a 3-fold dilution series. Compounds were dispensed from a 20 mM DMSO stock and initially screened at a top concentration of 20 μM (ALDH1A3) or 250 μM (ALDH1A1, ALDH1A2 & ALDH2). Enzyme was added to the plate in a 5 μL volume, according to the final concentrations in table 1 below, and pre-incubated with compound for 30 minutes at room temperature before the addition of 5 μL of the substrate (propionaldehyde) and cofactor (NAD), to effect final concentrations equal to the Km as shown in Table 1. The assay buffer used consisted of 40 mM Tris for 1A1 (pH 7.6), 1A2 (pH 7.6) and 1A3 (pH 9.0) and 10 mM Tris for ALDH2 (pH 8.0) supplemented with 1 mM TCEP, 0.01% Tween-20, 0.1 mM EDTA. The reaction mix was incubated at 26° C. on a shaking incubator for 30 minutes before being stopped by the addition of 10 μL of the Promega detection reagent and 100×IC50 of inhibitors of the respective isoforms. After stopping the reaction the plate was incubated for 60 minutes at room temperature and the luminescence signal read on a PheraStar FS microplate reader (BMG Labtech) and resulting IC50 values were calculated using Dotmatics software.
Enzyme, substrate and cofactor concentrations were selected to ensure the reaction ran under initial velocity conditions.

Compound | IC50 [µM]
O=C1CCc2cc(NC(=O)c3cncnc3-c3cccc(F)c3)ccc2N1 [ALDHI-1018, 4-(3-fluorophenyl)-N-(2-oxo-3,4-dihydro-1H-quinolin-6-yl)pyrimidine-5-carboxamide] | ≥ 100
Cc1cccc(C2CCCN2CCOc2ccc3c(c2)CCC(=O)N3)c1 (stereo not drawn) [ALDHI-2011, 6-[2-[2-(m-tolyl)pyrrolidin-1-yl]ethoxy]-3,4-dihydro-1H-quinolin-2-one] | ≥ 100
Cc1ccc(C2CCCN2CCOc2ccc3c(c2)CCC(=O)N3)cc1 (stereo not drawn) [ALDHI-2010, 6-[2-[2-(p-tolyl)pyrrolidin-1-yl]ethoxy]-3,4-dihydro-1H-quinolin-2-one] | ≥ 100
O=C1CCc2cc(OCCN3CC(F)CC3c3cccc(F)c3)ccc2N1 (stereo not drawn) [ALDHI-2052, 6-[2-[4-fluoro-2-(3-fluorophenyl)pyrrolidin-1-yl]ethoxy]-3,4-dihydro-1H-quinolin-2-one] | ≥ 100
O=C1CCc2cc(OCCN3CCCC3c3ccccc3)ccc2N1 (stereo not drawn) [ALDHI-2019, 6-[2-(2-phenylpyrrolidin-1-yl)ethoxy]-3,4-dihydro-1H-quinolin-2-one] | ≥ 100
CC1(C)Oc2cc(OCCN3CCCC3c3cccc(F)c3)ccc2NC1=O (stereo not drawn) [ALDHI-2043, 7-[2-[2-(3-fluorophenyl)pyrrolidin-1-yl]ethoxy]-2,2-dimethyl-4H-1,4-benzoxazin-3-one] | ≥ 100
O=C1COc2cc(NC(=O)c3scnc3-c3cccc(F)c3)ccc2N1 [ALDHI-1016, 4-(3-fluorophenyl)-N-(3-oxo-4H-1,4-benzoxazin-7-yl)thiazole-5-carboxamide] | ≥ 100
CN(CCOc1ccc2c(c1)CCC(=O)N2)Cc1cccc(F)c1 [ALDHI-3001, 6-[2-[(3-fluorophenyl)methyl-methyl-amino]ethoxy]-3,4-dihydro-1H-quinolin-2-one] | ≥ 100
CN(CCOc1ccc2c(c1)CCC(=O)N2)C(=O)c1cccnc1 [ALDHI-3013, N-methyl-N-[2-[(2-oxo-3,4-dihydro-1H-quinolin-6-yl)oxy]ethyl]pyridine-3-carboxamide] | ≥ 100
O=C1CCc2cc(NC(=O)c3scnc3-c3ccc(F)cc3)ccc2N1 [ALDHI-1017, 4-(4-fluorophenyl)-N-(2-oxo-1,2,3,4-tetrahydroquinolin-6-yl)thiazole-5-carboxamide] | ≥ 100
O=C1CCc2cc(OCCN3CCCC3c3ccccc3F)ccc2N1 (stereo not drawn) [ALDHI-2002, 6-[2-[2-(2-fluorophenyl)pyrrolidin-1-yl]ethoxy]-3,4-dihydro-1H-quinolin-2-one] | ≥ 100
O=C1CSc2cc(OCCN3CCCC3c3cccnc3)ccc2N1 (stereo not drawn) [ALDHI-2028, 7-[2-[2-(3-pyridyl)pyrrolidin-1-yl]ethoxy]-4H-1,4-benzothiazin-3-one] | ≥ 100
O=C1CCc2cc(OCCN3CCOCC3c3cccc(F)c3)ccc2N1 (stereo not drawn) [ALDHI-2031, 6-[2-[3-(3-fluorophenyl)morpholin-4-yl]ethoxy]-3,4-dihydro-1H-quinolin-2-one] | ≥ 100
O=C1CCc2cc(OCCN3C(=O)CCC3c3ccccc3)ccc2N1 (stereo not drawn) [ALDHI-2051, 6-[2-(2-oxo-5-phenyl-pyrrolidin-1-yl)ethoxy]-3,4-dihydro-1H-quinolin-2-one] | ≥ 100
O=C1CSc2cc(OCCN3CCCC3c3ccncc3)ccc2N1 (stereo not drawn) [ALDHI-2029, 7-[2-[2-(4-pyridyl)pyrrolidin-1-yl]ethoxy]-4H-1,4-benzothiazin-3-one] | ≥ 100
O=C1CCc2cc(NC(=O)c3sc(N4CC(O)C4)nc3-c3cccc(F)c3)ccc2N1 [ALDHI-1004, 4-(3-fluorophenyl)-2-(3-hydroxyazetidin-1-yl)-N-(2-oxo-3,4-dihydro-1H-quinolin-6-yl)thiazole-5-carboxamide] | ≥ 100
Cc1ccccc1C1CCCN1CCOc1ccc2c(c1)CCC(=O)N2 (stereo not drawn) [ALDHI-2012, 6-[2-[2-(o-tolyl)pyrrolidin-1-yl]ethoxy]-3,4-dihydro-1H-quinolin-2-one] | ≥ 100
O=C1CCc2cc(NC(=O)c3c[nH]nc3-c3cccc(F)c3)ccc2N1 [ALDHI-1006, 3-(3-fluorophenyl)-N-(2-oxo-1,2,3,4-tetrahydroquinolin-6-yl)-1H-pyrazole-4-carboxamide] | 10 to 100
